According to patent US7544438B2, “Electron mediator, electron mediator immobilized electrode, and biofuel cell using the electrode” (Daiichi Pure Chemicals Co., Ltd, priority 2003, dated 2009):

Tests used:
[1] = Cyclic voltammetry (CV), redox potential of mediator molecule; format: physicochemical; details: 0.09 mM mediator in Tris buffer solution (pH 8.5); glassy carbon electrode; Ag|AgCl (saturated KCl) reference; 5 mV/s
Text: [Cyclic Voltammetry (CV), Redox Potential of Mediator Molecule]
The obtained voltammogram represents the potential on an abscissa axis and the current on an ordinate axis. The CV involves relatively easy experiments and sharply reflects not only equilibrium parameters such as the redox potential or diffusion information but also kinetic parameters of an electrode reaction or of a chemical reaction in solution. Thus, the CV is a method of electrochemical measurement allowing an intuitive grasp of the electrode reaction.
The CV for mediator evaluation involves measuring in an electrolytic solution consisting of the buffer with various mediators, diaphorase, and NADH added.
A potentiostat mode of Hokuto Denko HZ-3000 was used. A glassy carbon electrode (GDE, electrode area of about 0.083 cm^2) was used as a working electrode. The GDE was polished with an aluminum powder of 0.05 μm and subjected to ultrasonic cleaning in deionized water before every measurement. A three electrode cell was used, and a Pt electrode and an Ag|AgCl (saturated KCl) electrode were used as a counter electrode and a reference electrode, respectively for the measurement. A potential was changed at a rate of 5 mV/s. A measurement sample was subjected to sufficient bubbling with N2 gas before the measurement to remove dissolved oxygen, and the N2 gas overflowed during the measurement. All measurements began from an open circuit potential.
Cyclic voltammograms with (a) in FIGS. 5A to 5F are measurement of 0.09 mM solutions of the various mediators prepared using a Tris buffer solution (pH 8.5).

[2] = test system: Dp (DIAPHORASE I, [EC 1.6.99.-]); experiment: Reaction kinetic analysis between diaphorase (Dp) and mediator by CV; format: biochemical, Bacillus stearothermophilus; details: comparison of FMA with AQS, FIG. 6
Text: A technique of reaction kinetic analysis between an enzyme and a mediator molecule using CV will be described referring to a document (Kazuyoshi Takagi, Kenji Kano, Tokuji Ikeda, J. Electroanal. Chem., 1988, 445, 211-219). Dp catalyses an oxidation reaction of NADH in the presence of an appropriate mediator (Mox) as represented by the following equation (4).
An NADH oxidation rate (νE, ox) may be represented by the following equation (5) on an assumption that an enzyme reaction follows a ping-pong mechanism.
In addition, vE, ox of equation (5) can be approximated as the following equation (6) when Mox concentration is negligibly small ([Mox]<<KM, ox) in the vicinity of the electrode surface.
From the above, kcat, ox/KM, ox clearly represents a reaction rate constant between DPred and Mox. Further, steady state limiting current of catalyst (Is, ox) observed at a more positive potential from the redox potential of the mediator molecule can be represented by the following equation (7).
The reaction rate constant kcat, ox/KM, ox can be estimated from the measured limiting current value using the above equation (7).
On the other hand, cyclic voltammograms with (b) in FIGS. 5A to 5F are measurement results of the above mediator solutions with 0.11 μM of Dp ([…], [EC 1.6.99.-], from Bacillus stearothermophilus, available from Unitika Ltd.) and 4.8 mM of NADH added. […]

| SMILES | redox formal potentials (E^0M′) approximated at middle points of oxidation peaks and reduction peaks [1] [V] | reaction rate constant larger than that of the AQS by [2] [digit] |
| --- | --- | --- |
| CC1=C(CCCN)C(=O)c2ccccc2C1=O [APVK3, 2-(3-aminopropyl)-3-methyl-1,4-naphthoquinone] | −0.32 | – |
| OC[c-]1cccc1.[Fe+2].c1cc[cH-]c1 [FMA, ferrocene methanol] | 0.23 | ≥ 1 |
| O=C1c2ccccc2C(=O)c2cc(S(=O)(=O)[O-])ccc21.[Na+] [AQS, sodium anthraquinone-2-sulfonate] | −0.49 | – |
| CC1=C(CCCC(=O)NCCN)C(=O)c2ccccc2C1=O [AEACPVK3, 2-{3-[N-(2-aminoethyl)aminocarbonyl]propyl}-3-methyl-1,4-naphthoquinone] | −0.32 | – |
| CC1=CC(=O)c2ccccc2C1=O [VK3, 2-methyl-1,4-naphthoquinone] | −0.28 | – |
| CC1=C(CCCC(=O)O)C(=O)c2ccccc2C1=O [CPVK3, 2-(3-carboxypropyl)-3-methyl-1,4-naphthoquinone] | −0.32 | – |
